In patent publication US20220127297A1, “Novel Antibacterial 3"-Derivatives Of 4,6-Disubstituted 2,5-Dideoxystreptamine Aminoglycoside Antibiotics” (AGILeBiotics B.V., priority 2018, published 2022):

What was measured:
Experiment in all cases: MIC determination at Uppsala University
Format in all cases: cell-based
[1] = system: M. morgannii S49; conditions: Morganella morganii, AAC(3)-IId, ANT(3″), APH(3″)-Ib, APH(3′)-Ia, APH(6)-Id
Text: (§1) 3.4.1 MIC Determination at Uppsala University (Sweden)
(§2) Tested reference compounds. Amikacin disulfate (Cat. No. A1774, Sigma Aldrich), Apramycin sulfate (Cat. No. A2024, Sigma Aldrich) and Gentamicin sulfate (Cat. No. G1914, Sigma Aldrich).
(§3) Bacterial strains/isolates. All assayed laboratory and clinical strains (P. aeruginosa PA01, A. baumanii ATCC 19606, A. baumanii 195N(a), A. baumanii 48F, E. coli C1162, E. coli C1181, M. morgannii S49 and P. stuartii B8-1) were from the IMI ND4BB ENABLE consortium strain collection. ATCC laboratory strains were acquired directly from the American Type Culture Collection. Clinical strains used were previously published (M Juhas, et al. J. Antimicrob. Chemother., 74 (4), 944-952 (2019); D. Hughes et al., Antimicrob. Agents Chemother., 47 (10), 3222-3232 (2003)) and were resistance genotyped within the ENABLE consortium.
(§4) Culture media and equipment. Water (Thermo Scientific, R05819); Mueller-Hinton II broth (BD Ref. 212322); sterile round-bottom 96-well plates (Thermo Scientific, 262162); Sensititre Nephelometer (ThermoFisher Scientific, V3011); 0.5 McFarland Standard (ThermoFisher Scientific, E1041); sterile polyester film (VWR, 391-1251).
(§5) Compound preparation. MIC assay procedure follows the CLSI M07 standard method (Clinical and Laboratory Standards Institute (CLSI); Methods for dilution antimicrobial susceptibility tests for bacteria that grow aerobically; approved standard—eleventh edition, M07-A10, Vol. 38, No. 2, 2018). Test compounds were received as solids and were dissolved in water to a concentration of 10 mg/mL of active compound. […] This solution was serially diluted in 2-fold steps in the first 10 columns of sterile round-bottom 96-well plates, while the final two columns were filled with Mueller-Hinton II broth without added compound for use as positive and negative growth controls.
(§6) Inoculum preparation. Inoculums were prepared by suspending several colonies freshly streaked culture of test strains in 5 mL of sterile 0.9% NaCl. The cell density of the inoculum solution was assessed and adjusted using a Sensititre Nephelometer and a 0.5 McFarland Standard. The inoculum was diluted 1:100 in Mueller-Hinton II broth and 50 μL of this inoculum solution was added to 50 μL of the test compound solutions yielding a concentration range of 64-0.125 μg/mL. The plates were sealed with sterile polyester film and stationarily incubated at 37° C. for 18 hours.
(§7) MIC determination. The MIC value was determined by visual inspection of bacterial growth within 96-well plates. The lowest concentration completely inhibiting growth was reported as the MIC for each strain and compound combination.

[2] = system: E. coli C1181; conditions: Escherichia coli, ANT(3″)-Ia, APH(3′)-Ia
Text: as §1, §2, §3, §4, §5, §6, §7

[3] = system: P. stuartii B8-1; conditions: Providencia stuartii, B81, AAC(3)-Ic, ANT (3″)Ia, APH(3′)-IIa, APH(3′)-IIb, APH(3′)-VI, APH(6)-Ic
Text: as §1, §2, §3, §4, §5, §6, §7

[4] = system: A. baumanii ATCC 19606; conditions: Acinetobacter baumannii, ATCC19606, AMEs: WT
Text: as §1, §2, §3, §4, §5, §6, §7

[5] = system: A. baumanii 195N (a); conditions: Acinetobacter baumannii, AAC(3)Ia, ANT(3″)Ia, APH(3″)Ib, APH(3′)VI, APH(6)Id
Text: as §1, §2, §3, §4, §5, §6, §7

[6] = system: P. aeruginosa PAO1; conditions: Pseudomonas aeruginosa, AMEs: WT
Text: as §1, §2, §3, §4, §5, §6, §7

[7] = system: E. coli C1162; conditions: Escherichia coli, APH(3′)-Ia
Text: as §1, §2, §3, §4, §5, §6, §7

[8] = system: A. baumanii 48F; conditions: Acinetobacter baumannii; A. boumanii 48F; ANT(2″)Ia, APH(3″)-Ib, APH(3′)-VIa, APH(6)-Id
Text: as §1, §2, §3, §4, §5, §6, §7

Compound | MIC90 [1] [µg/mL] | MIC90 [2] [µg/mL] | MIC90 [3] [µg/mL] | MIC90 [4] [µg/mL] | MIC90 [5] [µg/mL] | MIC90 [6] [µg/mL] | MIC90 [7] [µg/mL] | MIC90 [8] [µg/mL]
N=C(N)NC1C(O)[C@@H](CO)OC(OC2C(F)[C@H](O[C@H]3OC(CN)[C@@H](O)CC3N)C(N)C[C@H]2NC(=O)[C@@H](O)CCN)[C@@H]1O (some centres unmarked) [ABX5006, Tobra-AHB-F-Gua] | 1 | 1 | 4 | 8 | 4 | 1 | 1 | 4
N=C(NC[C@@H]1CCCN1)NC1[C@@H](O)C(OC2[C@@H](F)[C@H](O[C@H]3OC(CN)[C@@H](O)CC3N)C(N)C[C@H]2NC(=O)[C@@H](O)CCN)O[C@H](CO)[C@H]1O (stereo partly drawn) [ABX5026, Tobra-AHB-F-Gua (S) pyrrolidine-2-yl-methyl] | 2 | 0.5 | 2 | 8 | 8 | 1 | 1 | 4
N=C(NC[C@@H]1CCNC1)NC1[C@@H](O)C(OC2[C@@H](F)[C@H](O[C@H]3OC(CN)[C@@H](O)CC3N)C(N)C[C@H]2NC(=O)[C@@H](O)CCN)O[C@H](CO)[C@H]1O (stereo partly drawn) [ABX5039, Tobra-AHB-F-Gua (R) pyrrolidine-3-ylmethyl] | 1 | 0.5 | 2 | 8 | 4 | 1 | 1 | 4
NCC[C@H](O)C(=O)N[C@@H]1C[C@H](N)[C@@H](O[C@H]2O[C@H](CN)[C@@H](O)[C@H](O)[C@H]2O)[C@H](O)[C@H]1O[C@H]1O[C@H](CO)[C@@H](O)[C@H](N)[C@H]1O [Amikacin, amikacin, reference compound] | 4 | 4 | > 64 | 16 | > 64 | 4 | 4 | > 64
